Test results reported in the NIST ThermoML archive (doi:10.1016/j.jct.2016.03.035).
“And” between values parts separate entries of the source, which are not always exact repeats. Identical values can stand only once.

Experiment: xn = mol fraction of the nth substance listed
Details: Gas, Buoyancy - hydrostatic balance with magnetic suspension - two sinkers

C [methane] + CCC
Details | mass density
248.15 K, 96.6 kPa, x1 = 0.2658 | 1.7468 kg/m3
248.15 K, 120.09 kPa, x1 = 0.5069 | 1.764 kg/m3 and 1.7641 kg/m3 and 1.7642 kg/m3
248.15 K, 141.7 kPa, x1 = 0.2658 | 2.5863 kg/m3 and 2.5861 kg/m3 and 2.5862 kg/m3
248.15 K, 183.4 kPa, x1 = 0.5069 | 2.7166 kg/m3 and 2.7162 kg/m3 and 2.7167 kg/m3
248.15 K, 184.56 kPa, x1 = 0.2658 | 3.3989 kg/m3 and 3.3987 kg/m3
248.15 K, 220.8 kPa, x1 = 0.2658 | 4.0983 kg/m3 and 4.0981 kg/m3 and 4.0981 kg/m3
248.15 K, 244.4 kPa, x1 = 0.5069 | 3.6494 kg/m3 and 3.6497 kg/m3 and 3.6499 kg/m3
248.15 K, 251.13 kPa, x1 = 0.2658 | 4.6927 kg/m3 and 4.6924 kg/m3 and 4.6926 kg/m3
248.15 K, 271.98 kPa, x1 = 0.2658 | 5.1061 kg/m3
248.15 K, 271.99 kPa, x1 = 0.2658 | 5.1059 kg/m3
248.15 K, 275.99 kPa, x1 = 0.2658 | 5.186 kg/m3 and 5.1858 kg/m3 and 5.1858 kg/m3
248.15 K, 303.31 kPa, x1 = 0.5069 | 4.5661 kg/m3 and 4.566 kg/m3 and 4.5662 kg/m3
248.15 K, 360.5 kPa, x1 = 0.5069 | 5.4703 kg/m3 and 5.4702 kg/m3 and 5.4702 kg/m3
248.15 K, 424.87 kPa, x1 = 0.5069 | 6.5058 kg/m3 and 6.5052 kg/m3 and 6.5054 kg/m3
248.16 K, 96.6 kPa, x1 = 0.2658 | 1.7471 kg/m3 and 1.747 kg/m3
248.16 K, 390.03 kPa, x1 = 0.7498 | 4.4827 kg/m3
248.16 K, 390.04 kPa, x1 = 0.7498 | 4.4825 kg/m3 and 4.4826 kg/m3
248.16 K, 500.33 kPa, x1 = 0.7498 | 5.7987 kg/m3 and 5.7985 kg/m3 and 5.7986 kg/m3
248.16 K, 580.7 kPa, x1 = 0.7498 | 6.7716 kg/m3 and 6.7717 kg/m3
248.16 K, 685.07 kPa, x1 = 0.7498 | 8.055 kg/m3 and 8.0552 kg/m3
248.16 K, 786.23 kPa, x1 = 0.7498 | 9.3205 kg/m3
248.16 K, 786.24 kPa, x1 = 0.7498 | 9.3204 kg/m3 and 9.3205 kg/m3
248.16 K, 835.59 kPa, x1 = 0.7498 | 9.9462 kg/m3
248.16 K, 835.6 kPa, x1 = 0.7498 | 9.946 kg/m3 and 9.9461 kg/m3
248.16 K, 859.93 kPa, x1 = 0.7498 | 10.2556 kg/m3
248.16 K, 859.95 kPa, x1 = 0.7498 | 10.2561 kg/m3 and 10.2559 kg/m3
248.16 K, 884.03 kPa, x1 = 0.7498 | 10.5636 kg/m3 and 10.5634 kg/m3 and 10.5637 kg/m3
248.17 K, 276.07 kPa, x1 = 0.7498 | 3.1457 kg/m3
248.17 K, 276.08 kPa, x1 = 0.7498 | 3.1457 kg/m3 and 3.1455 kg/m3
273.14 K, 124.74 kPa, x1 = 0.5069 | 1.6598 kg/m3 and 1.6598 kg/m3
273.14 K, 258.4 kPa, x1 = 0.5069 | 3.4826 kg/m3
273.15 K, 124.75 kPa, x1 = 0.5069 | 1.6598 kg/m3
273.15 K, 167.48 kPa, x1 = 0.2658 | 2.7681 kg/m3 and 2.7679 kg/m3
273.15 K, 167.49 kPa, x1 = 0.2658 | 2.7677 kg/m3
273.15 K, 218.01 kPa, x1 = 0.5069 | 2.9256 kg/m3
273.15 K, 218.04 kPa, x1 = 0.5069 | 2.9262 kg/m3
273.15 K, 218.06 kPa, x1 = 0.5069 | 2.9265 kg/m3
273.15 K, 242.18 kPa, x1 = 0.2658 | 4.0482 kg/m3 and 4.0482 kg/m3
273.15 K, 258.4 kPa, x1 = 0.5069 | 3.4831 kg/m3
273.15 K, 258.41 kPa, x1 = 0.5069 | 3.4831 kg/m3
273.15 K, 262.29 kPa, x1 = 0.5069 | 3.5352 kg/m3
273.15 K, 269.26 kPa, x1 = 0.5069 | 3.6315 kg/m3
273.15 K, 277.28 kPa, x1 = 0.5069 | 3.7427 kg/m3
273.15 K, 309 kPa, x1 = 0.5069 | 4.1836 kg/m3
273.15 K, 316.31 kPa, x1 = 0.5069 | 4.2857 kg/m3
273.15 K, 321.34 kPa, x1 = 0.5069 | 4.3577 kg/m3 and 4.3576 kg/m3
273.15 K, 321.35 kPa, x1 = 0.5069 | 4.3574 kg/m3
273.15 K, 323.08 kPa, x1 = 0.5069 | 4.3804 kg/m3
273.15 K, 340.33 kPa, x1 = 0.5069 | 4.6223 kg/m3
273.15 K, 340.34 kPa, x1 = 0.5069 | 4.6226 kg/m3
273.15 K, 340.36 kPa, x1 = 0.5069 | 4.6229 kg/m3
273.15 K, 344.34 kPa, x1 = 0.2658 | 5.85 kg/m3 and 5.8499 kg/m3 and 5.85 kg/m3
273.15 K, 401.7 kPa, x1 = 0.2658 | 6.8907 kg/m3 and 6.8903 kg/m3
273.15 K, 401.71 kPa, x1 = 0.2658 | 6.8904 kg/m3
273.15 K, 402.73 kPa, x1 = 0.5069 | 5.504 kg/m3
273.15 K, 406.4 kPa, x1 = 0.2658 | 6.9763 kg/m3
273.15 K, 406.45 kPa, x1 = 0.2658 | 6.9765 kg/m3 and 6.9764 kg/m3
273.15 K, 409.05 kPa, x1 = 0.5069 | 5.5939 kg/m3
273.15 K, 415.33 kPa, x1 = 0.5069 | 5.6832 kg/m3
273.15 K, 430.79 kPa, x1 = 0.2658 | 7.4249 kg/m3
273.15 K, 430.8 kPa, x1 = 0.2658 | 7.4251 kg/m3
273.15 K, 441.05 kPa, x1 = 0.5069 | 6.0518 kg/m3
273.15 K, 441.3 kPa, x1 = 0.5069 | 6.0554 kg/m3
273.15 K, 441.54 kPa, x1 = 0.5069 | 6.0588 kg/m3
273.15 K, 453.5 kPa, x1 = 0.5069 | 6.23 kg/m3
273.15 K, 453.52 kPa, x1 = 0.5069 | 6.23 kg/m3
273.15 K, 453.54 kPa, x1 = 0.5069 | 6.2304 kg/m3
273.15 K, 486.09 kPa, x1 = 0.2658 | 8.458 kg/m3 and 8.4582 kg/m3
273.15 K, 486.1 kPa, x1 = 0.2658 | 8.4581 kg/m3
273.15 K, 491.06 kPa, x1 = 0.5069 | 6.7718 kg/m3
273.15 K, 491.73 kPa, x1 = 0.2658 | 8.5643 kg/m3 and 8.5641 kg/m3 and 8.564 kg/m3
273.15 K, 497.16 kPa, x1 = 0.5069 | 6.8601 kg/m3
273.15 K, 500.88 kPa, x1 = 0.7498 | 5.2229 kg/m3
273.15 K, 500.89 kPa, x1 = 0.7498 | 5.2229 kg/m3
273.15 K, 503.23 kPa, x1 = 0.5069 | 6.9481 kg/m3
273.15 K, 506.92 kPa, x1 = 0.5069 | 7.0016 kg/m3
273.15 K, 506.93 kPa, x1 = 0.5069 | 7.0019 kg/m3
273.15 K, 506.95 kPa, x1 = 0.5069 | 7.0022 kg/m3
273.15 K, 537.7 kPa, x1 = 0.2658 | 9.4418 kg/m3 and 9.4416 kg/m3
273.15 K, 537.71 kPa, x1 = 0.2658 | 9.4418 kg/m3
273.15 K, 554.75 kPa, x1 = 0.5069 | 7.701 kg/m3
273.15 K, 555.81 kPa, x1 = 0.5069 | 7.717 kg/m3
273.15 K, 556.85 kPa, x1 = 0.5069 | 7.7324 kg/m3
273.15 K, 562.21 kPa, x1 = 0.2658 | 9.9156 kg/m3 and 9.9157 kg/m3
273.15 K, 568.57 kPa, x1 = 0.2658 | 10.0393 kg/m3 and 10.0391 kg/m3
273.15 K, 607.74 kPa, x1 = 0.5069 | 8.4834 kg/m3
273.15 K, 607.75 kPa, x1 = 0.5069 | 8.4836 kg/m3
273.15 K, 607.76 kPa, x1 = 0.5069 | 8.484 kg/m3
273.15 K, 608.84 kPa, x1 = 0.2658 | 10.8308 kg/m3 and 10.8306 kg/m3
273.15 K, 611.36 kPa, x1 = 0.5069 | 8.5381 kg/m3
273.15 K, 612.13 kPa, x1 = 0.5069 | 8.5492 kg/m3
273.15 K, 612.89 kPa, x1 = 0.5069 | 8.5606 kg/m3
273.15 K, 615.59 kPa, x1 = 0.2658 | 10.9646 kg/m3 and 10.9644 kg/m3 and 10.9642 kg/m3
273.15 K, 619.26 kPa, x1 = 0.5069 | 8.6551 kg/m3
273.15 K, 625.49 kPa, x1 = 0.5069 | 8.7476 kg/m3
273.15 K, 631.66 kPa, x1 = 0.5069 | 8.8402 kg/m3
273.15 K, 652.39 kPa, x1 = 0.2658 | 11.7012 kg/m3
273.15 K, 652.4 kPa, x1 = 0.2658 | 11.7011 kg/m3
273.15 K, 659.32 kPa, x1 = 0.2658 | 11.841 kg/m3 and 11.8409 kg/m3 and 11.8406 kg/m3
273.15 K, 699.84 kPa, x1 = 0.5069 | 9.8667 kg/m3
273.15 K, 701.3 kPa, x1 = 0.5069 | 9.889 kg/m3
273.15 K, 701.31 kPa, x1 = 0.5069 | 9.8889 kg/m3
273.15 K, 701.32 kPa, x1 = 0.5069 | 9.8887 kg/m3
273.15 K, 705.89 kPa, x1 = 0.5069 | 9.9581 kg/m3
273.15 K, 711.37 kPa, x1 = 0.5069 | 10.0422 kg/m3
273.15 K, 711.71 kPa, x1 = 0.5069 | 10.0475 kg/m3
273.15 K, 711.89 kPa, x1 = 0.5069 | 10.0504 kg/m3
273.15 K, 712.05 kPa, x1 = 0.5069 | 10.0527 kg/m3
273.15 K, 776.08 kPa, x1 = 0.5069 | 11.034 kg/m3
273.15 K, 781.94 kPa, x1 = 0.5069 | 11.1239 kg/m3
273.15 K, 787.74 kPa, x1 = 0.5069 | 11.2144 kg/m3
273.15 K, 802.95 kPa, x1 = 0.5069 | 11.451 kg/m3
273.15 K, 803.19 kPa, x1 = 0.5069 | 11.4546 kg/m3
273.15 K, 803.43 kPa, x1 = 0.5069 | 11.4585 kg/m3
273.15 K, 829.51 kPa, x1 = 0.5069 | 11.8643 kg/m3
273.15 K, 829.52 kPa, x1 = 0.5069 | 11.8644 kg/m3 and 11.8643 kg/m3
273.15 K, 883.12 kPa, x1 = 0.5069 | 12.7095 kg/m3
273.15 K, 888.99 kPa, x1 = 0.5069 | 12.8025 kg/m3
273.15 K, 894.82 kPa, x1 = 0.5069 | 12.8951 kg/m3
273.15 K, 899.8 kPa, x1 = 0.7498 | 9.5967 kg/m3 and 9.5966 kg/m3
273.15 K, 899.82 kPa, x1 = 0.7498 | 9.5965 kg/m3
273.15 K, 907.75 kPa, x1 = 0.5069 | 13.1005 kg/m3
273.15 K, 907.76 kPa, x1 = 0.5069 | 13.1006 kg/m3
273.15 K, 929.46 kPa, x1 = 0.5069 | 13.4491 kg/m3
273.15 K, 930.26 kPa, x1 = 0.5069 | 13.4619 kg/m3
